{
  "source": "patent US20150250166A1",
  "about": "“NOOTKATONE AS AN INSECTICIDE AND INSECT REPELLENT” (ALLYLIX, INC., priority 2012, published 2015)",
  "assay_type_in_all_cases": "in vivo",
  "key": {"[1]": {"tested_on": "adult bed bugs (Cimex lectularius)", "experiment": "Direct spray knockdown of adult bed bugs", "conditions": "for bed bug knockdown activity, in words: early time points; for bed bugs exhibiting knockdown, average count of 5 trials (of 10): 10% nootkatone, 0.1% BHT in isopropanol", "method": "(§1) A direct spray formulation, containing 10% nootkatone (from Bedoukian Research, Inc., Product No. 800; Danbury, Conn.), 0.1% butylated hydroxytoluene (BHT) in isopropanol, stored at ambient temperature and humidity, was tested for efficacy for knockdown and mortality among adult bed bugs (Cimex lectularius). Adult bed bugs (ICR, Baltimore, Md.) used in this study were blood fed within 7 days of testing. The bed bugs were anesthetized with CO2 and five groups of ten bed bugs were transferred into 9 dram vials at least 2 hours prior to testing. Just prior to treatment, the bed bugs were transferred to 16 oz. paper solo cups with cloth glued to the bottom on the inside of the cup and a screened lid. Each replicate was then sprayed manually, using a 2-3 oz. pump sprayer, with 1 gram±0.1 grams of the 10% nootkatone formulation. Each replicate was sprayed separately from a vertical distance of 6 inches above the bed bugs. The spray bottle was weighed before and after treating each replicate to confirm the weight of the test sample dispensed. All spraying took place in a vented, stainless steel Peet Grady chamber (6×6×6 ft). […] Knockdown was defined as the inability of a bed bug to right itself when placed on its back. After the five minute time point, the bed bugs were transferred to recovery containers that hold 16 oz. paper solo cups equipped with screened lids. A further knockdown study took place at 15 minutes post treatment. Serving as control samples, five replicates of 10 adult bed bugs were treated with isopropyl alcohol alone and five replicates of 10 adult bed bugs were treated with water, following the protocol outlined above.\n(§2) A direct spray formulation, containing 5% nootkatone (from Bedoukian Research, Inc., Product No. 800; Danbury, Conn.), 0.1% butylated hydroxytoluene (BHT) in acetone, stored at ambient temperature and humidity, was tested for efficacy for knockdown and mortality among adult bed bugs (Cimex lectularius) using the same procedure as described in Example 1 above. Five replicates of ten bed bugs were sprayed with 1.0 g±20% of a 5% nootkatone in acetone solution stabilized with 0.1% BHT. An additional five replicates were treated with 1.0 g±20% of tap water to serve as a control."}, "[2]": {"tested_on": "adult cat fleas (Ctenocephalides felis)", "conditions": "10% nootkatone in isopropanol, direct spray; 24 hours", "method": "A direct spray formulation, containing 10% nootkatone, 0.1% butylated hydroxytoluene (BHT) in isopropanol, stored at ambient temperature and humidity, was tested for efficacy for knockdown and mortality among adult cat fleas (Ctenocephalides felis). Five replicates of 10 adult cat fleas (El Labs Inc (Soquel, Calif.)) were emptied from 9 dram vials into 5 gallon HDPE Payliner® pail liners lined with paper towels. Each replicate was sprayed manually with 1 gram±0.1 grams of the 10% nootkatone formulation from the rim of the pail liner. The spray bottle was weighed before and after treating each replicate to confirm the weight of the test sample dispensed. Five control replicates of 10 adult cat fleas were treated with isopropyl alcohol, following the same protocol. The study provided a single treatment of 10% nootkatone formulation or isopropyl alcohol. All spraying took place in a vented, stainless steel Peet Grady chamber (6×6×6 ft).\nFollowing the knockdown studies, the payliners containing cat fleas were kept at ambient temperature and humidity in the laboratory. Mortality of cat fleas following isopropanol (control) and 10% nootkatone treatments was then recorded 24 hours after solution administration. Dead fleas were confirmed by probing the fleas or exhaling into the payliner to ensure lack of movement. […] Cat fleas that were able to jump were recorded as being alive. The number of moribund and dead fleas per replicate were added together for a total mortality count and divided by the number of fleas tested to derive percent mortality."}, "[3]": {"tested_on": "adult bed bugs (Cimex lectularius)", "experiment": "Direct spray mortality of adult bed bugs", "conditions": "for bed bug mortality, in words: within the 15 minute knockdown study; for Alive, Treatment (bed bug count, of 50) / Dead, Treatment (bed bug count, of 50) / Moribund, Treatment (bed bug count, of 50): 5% nootkatone, 0.1% BHT in acetone", "method": "as §1\nAfter the knockdown counts were complete, the bed bugs were maintained in treatment chambers, in the laboratory at ambient light, temperature, and humidity conditions. Mortality counts were made at 24 and 48 hours post treatment. […] Table 4 below provides the average mortality data for the five replicates of bed bugs treated with water, isopropanol alone, or with 10% nootkatone in isopropanol at 24 and 48 hours.\nas §2\nAfter the knockdown counts were complete, the bed bugs were maintained in treatment chambers, in the laboratory at ambient light, temperature, and humidity conditions. Mortality counts were made at 1, 2, 3, 4 and 5 days post treatment. […] Table 5 below provides the mortality data for the replicates of bed bugs treated with water (control) or with 5% nootkatone in acetone."}, "[4]": {"tested_on": "adult bed bugs (Cimex lectularius)", "experiment": "Bed bug repellency, treated versus untreated filter paper halves in Petri dish chamber", "conditions": "for Repellency (%) Treatment Group / bed bugs on Nootkatone treatment filter paper (count, of 50) / Repellency (summary of bedbug repellency): 0.1% BHT; for Repellency (summary of bedbug repellency): Day 1"}, "[5]": {"conditions": "time 1 (head: Minutes; text: days post treatment)"}, "[6]": {"conditions": "time 2 (head: Minutes; text: days post treatment)"}, "[7]": {"conditions": "time 3 (head: Minutes; text: days post treatment)"}, "[8]": {"conditions": "time 4 (head: Minutes; text: days post treatment)"}, "[9]": {"conditions": "time 5 (head: Minutes; text: days post treatment)"}, "[10]": {"conditions": "10% nootkatone in isopropanol, 24 hr post treatment"}, "[11]": {"conditions": "10% nootkatone in isopropanol, 48 hr post treatment"}, "[12]": {"conditions": "0.50% nootkatone in acetone, Day 1, 0.5 hour"}},
  "data": [
    {"smiles": "C=C(C)[C@@H]1CCC2=CC(=O)C[C@@H](C)[C@]2(C)C1", "note": "[nootkatone, 4,4a,5,6,7,8-hexahydro-6-isopropenyl-4,4a-dimethyl-2(3H)-naphtalenone]", "values": [
      {"measurement": "bed bug knockdown compared with control, in words", "setting": "[1]; 5% nootkatone in acetone, 15 minutes", "result": "no greater effect on bed bug knockdown than that observed for the control"},
      {"measurement": "bed bug knockdown activity, in words", "setting": "[1]; 5% nootkatone in acetone", "result": "some knockdown activity"},
      {"measurement": "bed bug knockdown compared with isopropanol alone, in words", "setting": "[1]; 10% nootkatone in isopropanol, 15 minutes", "result": "no greater effect on bed bug knockdown than that observed for isopropanol alone"},
      {"measurement": "bed bug knockdown activity, in words", "setting": "[1]; 10% nootkatone in isopropanol", "result": "some knockdown activity"},
      {"measurement": "bed bugs exhibiting knockdown, average count of 5 trials (of 10)", "setting": "[1]; 0.5 min post treatment", "result": 1.6},
      {"measurement": "bed bugs exhibiting knockdown, average count of 5 trials (of 10)", "setting": "[1]; 1 min post treatment", "result": 2.6},
      {"measurement": "bed bugs exhibiting knockdown, average count of 5 trials (of 10)", "setting": "[1]; 2 min post treatment", "result": 4.6},
      {"measurement": "bed bugs exhibiting knockdown, average count of 5 trials (of 10)", "setting": "[1]; 3 min post treatment", "result": 5},
      {"measurement": "bed bugs exhibiting knockdown, average count of 5 trials (of 10)", "setting": "[1]; 4 min post treatment", "result": 4.6},
      {"measurement": "bed bugs exhibiting knockdown, average count of 5 trials (of 10)", "setting": "[1]; 5 min post treatment", "result": 4.8},
      {"measurement": "bed bugs exhibiting knockdown, average count of 5 trials (of 10)", "setting": "[1]; 15 min post treatment", "result": 4.4},
      {"measurement": "Alive, average cat flea count of 5 trials (of 10)", "setting": "[2]", "result": 0},
      {"measurement": "Dead, average cat flea count of 5 trials (of 10)", "setting": "[2]", "result": 9.6},
      {"measurement": "Moribund, average cat flea count of 5 trials (of 10)", "setting": "[2]", "result": 0.4},
      {"measurement": "Mortality (moribund plus dead) of cat fleas", "setting": "[2]", "result": 100, "unit": "%"},
      {"measurement": "bed bug mortality compared with control, in words", "setting": "[3]; 5% nootkatone in acetone, 5 days", "result": "did not kill bed bugs after 5 days above mortality levels observed for the control"},
      {"measurement": "bed bug mortality, in words", "setting": "[3]; 5% nootkatone in acetone", "result": "No mortality was observed"},
      {"measurement": "Alive, Treatment (bed bug count, of 50)", "setting": "[3]; [5]", "result": 50},
      {"measurement": "Dead, Treatment (bed bug count, of 50)", "setting": "[3]; [5]", "result": 0},
      {"measurement": "Moribund, Treatment (bed bug count, of 50)", "setting": "[3]; [5]", "result": 0},
      {"measurement": "Alive, Treatment (bed bug count, of 50)", "setting": "[3]; [6]", "result": 49},
      {"measurement": "Dead, Treatment (bed bug count, of 50)", "setting": "[3]; [6]", "result": 1},
      {"measurement": "Moribund, Treatment (bed bug count, of 50)", "setting": "[3]; [6]", "result": 0},
      {"measurement": "Alive, Treatment (bed bug count, of 50)", "setting": "[3]; [7]", "result": 48},
      {"measurement": "Dead, Treatment (bed bug count, of 50)", "setting": "[3]; [7]", "result": 1},
      {"measurement": "Moribund, Treatment (bed bug count, of 50)", "setting": "[3]; [7]", "result": 1},
      {"measurement": "Alive, Treatment (bed bug count, of 50)", "setting": "[3]; [8]", "result": 45},
      {"measurement": "Dead, Treatment (bed bug count, of 50)", "setting": "[3]; [8]", "result": 2},
      {"measurement": "Moribund, Treatment (bed bug count, of 50)", "setting": "[3]; [8]", "result": 3},
      {"measurement": "Alive, Treatment (bed bug count, of 50)", "setting": "[3]; [9]", "result": 42},
      {"measurement": "Dead, Treatment (bed bug count, of 50)", "setting": "[3]; [9]", "result": 5},
      {"measurement": "Moribund, Treatment (bed bug count, of 50)", "setting": "[3]; [9]", "result": 3},
      {"measurement": "bed bug mortality compared with isopropanol alone, in words", "setting": "[3]; 10% nootkatone in isopropanol, 24 or 48 hours", "result": "did not kill bed bugs after 24 or 48 hours above mortality levels observed for isopropanol alone"},
      {"measurement": "Alive, average bed bug count of 5 trials (of 10)", "setting": "[3]; [10]", "result": 6.4},
      {"measurement": "Dead, average bed bug count of 5 trials (of 10)", "setting": "[3]; [10]", "result": 3.6},
      {"measurement": "Moribund, average bed bug count of 5 trials (of 10)", "setting": "[3]; [10]", "result": 0},
      {"measurement": "Alive, average bed bug count of 5 trials (of 10)", "setting": "[3]; [11]", "result": 5.2},
      {"measurement": "Dead, average bed bug count of 5 trials (of 10)", "setting": "[3]; [11]", "result": 4.8},
      {"measurement": "Moribund, average bed bug count of 5 trials (of 10)", "setting": "[3]; [11]", "result": 0},
      {"measurement": "bed bug mortality, in words", "setting": "[3]; 10% nootkatone in isopropanol", "result": "No mortality was observed"},
      {"measurement": "Repellency (%) Treatment Group", "setting": "[4]; 0.01% nootkatone in acetone, Day 1, 1.0 hour", "result": 66.0, "unit": "%"},
      {"measurement": "bed bugs on Nootkatone treatment filter paper (count, of 50)", "setting": "[4]; 0.01% nootkatone in acetone, Day 1, 24.0 hour", "result": 21},
      {"measurement": "bedbug repellency, in words", "setting": "[4]; 0.01% nootkatone in acetone, day 1 and day 2, statistically significant versus the control", "result": "moderate bedbug repellency"},
      {"measurement": "Repellency (%) Treatment Group", "setting": "[4]; 0.10% nootkatone in acetone, Day 1, 0.5 hour", "result": 94.0, "unit": "%"},
      {"measurement": "Repellency (%) Treatment Group", "setting": "[4]; 0.10% nootkatone in acetone, Day 1, 2.0 hour", "result": 94.0, "unit": "%"},
      {"measurement": "bedbug repellency, in words", "setting": "[4]; 0.1% nootkatone in acetone, day one", "result": "good bedbug repellent for one day"},
      {"measurement": "Repellency (%) Treatment Group", "setting": "[4]; [12]", "result": 100.0, "unit": "%"},
      {"measurement": "bed bugs on Nootkatone treatment filter paper (count, of 50)", "setting": "[4]; [12]", "result": 0},
      {"measurement": "bed bugs on Nootkatone treatment filter paper (count, of 50)", "setting": "[4]; 0.50% nootkatone in acetone, Day 1, Average of time points", "result": 0.0},
      {"measurement": "Repellency (%) Treatment Group", "setting": "[4]; 0.50% nootkatone in acetone, Day 2, 1.0 hour", "result": 88.0, "unit": "%"},
      {"measurement": "bed bugs on Nootkatone treatment filter paper (count, of 50)", "setting": "[4]; 0.50% nootkatone in acetone, Day 2, Average of time points", "result": 4.2},
      {"measurement": "bedbug repellency, in words", "setting": "[4]; 0.5% nootkatone in acetone, two days", "result": "good bedbug repellent for two days"},
      {"measurement": "Repellency (summary of bedbug repellency)", "setting": "[4]; Nootkatone 0.010% in acetone", "result": 66.0, "unit": "%"},
      {"measurement": "Repellency (summary of bedbug repellency)", "setting": "[4]; Nootkatone 0.10% in acetone", "result": 93.6, "unit": "%"}
    ]}
  ]
}
